Assay results reported in publication PMC11731258, “The structural basis for high-affinity c-di-GMP binding to the GSPII-B domain of the traffic ATPase PilF from Thermus thermophilus” (The Journal of Biological Chemistry, 2024).
Read-outs that look alike come from different tables or passages of the source.

Legend:
PilF159-302 Q218E = target: T1, PilF159-302 Q218E (Thermus thermophilus, UniProt Q5SLC9, Q218E); experiment: ITC binding to PilF159-302 Q218E; details: 20 °C
T1 sequence (Q5SLC9 159-302 Q218E): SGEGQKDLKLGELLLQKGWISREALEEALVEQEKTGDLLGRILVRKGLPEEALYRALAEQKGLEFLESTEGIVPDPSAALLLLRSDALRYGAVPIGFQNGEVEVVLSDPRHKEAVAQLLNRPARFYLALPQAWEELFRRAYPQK
Description: (§1) To assess the ligand-binding capabilities of the various PilF constructs, triplicates of ITC measurements were recorded for each construct. The measurements were carried out using a MicroCal ITC200 (Malvern Panalytical). All ITC experiments were conducted at 20 °C with 50 mM Tris-HCl pH 7.5, 200 mM sodium chloride, 1 mM β-mercaptoethanol as the sample buffer. All protein samples were extensively dialyzed against the sample buffer and the buffer used for dialysis was used to dilute protein and c-di-GMP samples in preparation for the ITC measurements. Each measurement was conducted using the following protocol. In total, 39.8 μl c-di-GMP were titrated to 270 μl protein in 20 separate injections in 180 s intervals with a stirring speed of 750 rpm. After an initial delay of 120 s, the first injection of 0.2 μl c-di-GMP with a duration of 0.4 s was followed by 19 injections of 2 μl with a duration of 4 s. During the measurement, the feedback mode was set to high and the reference power to 11 μcal s^−1. To optimize precision of the measurements, protein and c-di-GMP concentrations were adjusted to the binding capabilities of the respective constructs and ranged from 5 to 200 μM for protein and 50 to 2000 μM for c-di-GMP. All thermograms were processed using Origin 7.0 (OriginLab) using a one-site– or two-site–binding model dependent on the number of expected binding events.

PilF159-302 K167L = target: T2, PilF159-302 K167L (Thermus thermophilus, UniProt Q5SLC9, K167L); experiment: ITC binding to PilF159-302 K167L; details: 20 °C
T2 sequence (Q5SLC9 159-302 K167L): T1 sequence (Q5SLC9 159-302 Q218E)
Description: as §1

PilF159-302 Q190E+Q218E = experiment: ITC binding to PilF159-302 Q190E+Q218E; set-up: species or system Thermus thermophilus; details: 20 °C, double mutant
Description: as §1

PilF159-302 K167R+E170D = target: T3, PilF159-302 K167R+E170D (Thermus thermophilus, UniProt Q5SLC9, E170D/K167R); experiment: ITC binding to PilF159-302 K167R-E170D; details: 20 °C
T3 sequence (Q5SLC9 159-302 K167R/E170D): T1 sequence (Q5SLC9 159-302 Q218E)
Description: as §1

[1] = target: T4, PilF1-302 (GSPII-A and GSPII-B) (Thermus thermophilus, UniProt Q5SLC9); experiment: ITC binding to PilF1-302; details: 20 °C
T4 sequence (Q5SLC9 1-302): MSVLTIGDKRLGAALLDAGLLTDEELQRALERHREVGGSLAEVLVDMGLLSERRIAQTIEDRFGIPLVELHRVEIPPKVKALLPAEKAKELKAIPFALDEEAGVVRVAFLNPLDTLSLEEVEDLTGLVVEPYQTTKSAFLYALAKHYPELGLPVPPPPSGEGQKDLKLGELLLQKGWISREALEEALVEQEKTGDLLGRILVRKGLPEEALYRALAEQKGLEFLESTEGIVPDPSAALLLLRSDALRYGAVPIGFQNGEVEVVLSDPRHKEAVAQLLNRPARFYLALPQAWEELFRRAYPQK
Description: as §1

[2] = target: degenerate EAL-domain of FimX; set-up: method as in PMID 19679088; details: cited from earlier work
[3] = target: T5, PilF1-482 (GSPII-A, -B, -C; lacks ATPase domain) (Thermus thermophilus, UniProt Q5SLC9); experiment: ITC binding to PilF1-482; details: 20 °C; for Kd: pH 7.5, two-site model
T5 sequence (Q5SLC9 1-482): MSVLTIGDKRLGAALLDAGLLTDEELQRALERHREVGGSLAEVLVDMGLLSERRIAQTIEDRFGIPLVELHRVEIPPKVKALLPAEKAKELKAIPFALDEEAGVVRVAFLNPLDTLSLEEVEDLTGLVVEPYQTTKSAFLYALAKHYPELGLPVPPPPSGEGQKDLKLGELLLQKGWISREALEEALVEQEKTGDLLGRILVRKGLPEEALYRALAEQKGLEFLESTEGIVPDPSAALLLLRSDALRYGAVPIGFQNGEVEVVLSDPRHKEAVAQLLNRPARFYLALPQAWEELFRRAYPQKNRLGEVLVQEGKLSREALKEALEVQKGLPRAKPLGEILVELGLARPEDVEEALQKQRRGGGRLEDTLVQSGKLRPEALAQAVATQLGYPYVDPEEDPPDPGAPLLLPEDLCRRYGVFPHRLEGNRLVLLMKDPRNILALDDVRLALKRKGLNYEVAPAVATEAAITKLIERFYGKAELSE
Description: as §1

Nc1nc2c(ncn2[C@@H]2O[C@@H]3COP(=O)(O)O[C@H]4[C@@H](O)[C@H](n5cnc6c(=O)[nH]c(N)nc65)O[C@@H]4COP(=O)(O)O[C@H]3[C@H]2O)c(=O)[nH]1 [c-di-GMP, cyclic dimeric guanosine monophosphate]
N (PilF159-302 Q218E): 1.26 ± 0.06
ΔH (PilF159-302 Q218E): -5.312 ± 0.34 kcal/mol
ΔS (PilF159-302 Q218E): 10.9 ± 1.0 cal/mol/deg
Kd (PilF159-302 Q218E; pH 7.5): 460 ± 28 nM
N (PilF159-302 K167L): 0.76 ± 0.10
ΔH (PilF159-302 K167L): -10.241 ± 0.494 kcal/mol
ΔS (PilF159-302 K167L): 5.4 ± 1.4 cal/mol/deg
Kd (PilF159-302 K167L; pH 7.5): 2 ± 0.3 nM
c-di-GMP binding (PilF159-302 Q190E+Q218E): abrogated c-di-GMP binding
N (PilF159-302 K167R+E170D): 0.76 ± 0.03
ΔH (PilF159-302 K167R+E170D): -12.843 ± 0.363 kcal/mol
ΔS (PilF159-302 K167R+E170D): -11.6 ± 1.3 cal/mol/deg
Kd (PilF159-302 K167R+E170D; pH 7.5): 92 ± 8 nM
N [1]: 0.94 ± 0.13
ΔH [1]: -14.263 ± 2.001 kcal/mol
ΔS [1]: -11.4 ± 6.4 cal/mol/deg
Kd ([1]; pH 7.5): 7 ± 2 nM
Kd [2]: 100 to 200 nM
N, site 1 ([3]; Table S1 site 1): 0.98 ± 0.04
ΔH, site 1 ([3]; Table S1 site 1): -12.793 ± 0.095 kcal/mol
ΔS, site 1 ([3]; Table S1 site 1): -14.6 ± 0.2 cal/mol/deg
N, site 2 ([3]; Table S1 site 2): 0.85 ± 0.03
ΔH, site 2 ([3]; Table S1 site 2): -17.536 ± 0.128 kcal/mol
ΔS, site 2 ([3]; Table S1 site 2): -24.3 ± 0.3 cal/mol/deg
Kd ([3]; read-out: KD, high-affinity site (KD1 in text; site 2 in Table S1)): 17 ± 1 nM
Kd ([3]; read-out: KD, low-affinity site (KD2 in text; site 1 in Table S1)): 461 ± 36 nM
